Test [1] relates to H9c2. As to the kind of experiment: Cardioprotective activity against HR-induced injury in rat H9c2 cells assessed as increase in cell viability at 10 uM by CCK-8 assay relative to control. The format is functional.
Test [2] deals with H9c2. As to the kind of experiment: Protection against HR-induced mitochondrial dysfunction in rat H9c2 cells assessed as decrease in ROS production by fluorescence microplate reader. It is filed as functional, cell-based.
Test [3] has as its system H9c2. The test is described as follows: Protection against HR-induced mitochondrial dysfunction in rat H9c2 cells assessed as increase in cardiolipin content by fluorescence microplate reader. The format is functional, cell-based.
Test [4] deals with H9c2. The test is described as follows: Protection against HR-induced mitochondrial dysfunction in rat H9c2 cells assessed as mitochondrial membrane potential by measuring TMRE intensity by fluorescence microplate reader (reference value: 98.59 +/- 0.96 %). To be noted: dose 9.0 µM. The format is functional, cell-based.
Test [5] is described as follows: Induction of mitochondrial biogenesis in rat H9c2 cells with HR-induced injury assessed as upregulation of PPAR expression by immunoblotting (reference value: 0.065 +/- 0.019). It is filed as functional.
The nature of test [6]: Induction of mitochondrial biogenesis in rat H9c2 cells with HR-induced injury assessed as upregulation of PGC1beta mRNA expression relative to GADPH (reference value: 0.981 +/- 0.007). The format is functional.
Test [7] concerns H9c2. As to the kind of experiment: Increase in mitochondrial mass in rat H9c2 cells with HR-induced injury assessed as increase in NAO intensity by fluorescence microscopic analysis. The format is functional, cell-based.
The test system of test [8] is H9c2. The test is described as follows: Induction of mitochondrial biogenesis in rat H9c2 cells with HR-induced injury assessed as increase in NRF-1 mRNA expression. It is filed as functional, cell-based.
Test [9] is described as follows: Induction of mitochondrial biogenesis in rat H9c2 cells with HR-induced injury assessed as upregulation of ATP5I expression (reference value: 0.998 +/- 0.001). The format is functional.
For test [10], the system named is H9c2. The test is described as follows: Induction of mitochondrial biogenesis in rat H9c2 cells with HR-induced injury assessed as effect on PGC1alpha mRNA expression. It is filed as functional, cell-based.
Test [11] relates to H9c2. As to the kind of experiment: Induction of mitochondrial biogenesis in rat H9c2 cells with HR-induced injury assessed as […] in NRF-2 mRNA expression. The format is functional, cell-based.
Test [12] has as its system H9c2. The test is described as follows: Induction of mitochondrial biogenesis in rat H9c2 cells with HR-induced injury assessed as increase in NAO intensity by fluorescence microscopic analysis. It is filed as functional, cell-based.
The subject of test [13] is H9c2. The test is described as follows: Induction of mitochondrial biogenesis in rat H9c2 cells with HR-induced injury assessed as upregulation of TFAM expression. It is filed as functional, cell-based.
Test [14] deals with H9c2. As to the kind of experiment: Cardioprotective activity against HR-induced injury in rat H9c2 cells assessed as increase in cell viability at 0.1 to 90 uM by CCK-8 assay. The format is functional, cell-based. To be noted: dose 0.1-90 µM.
Test [15] concerns H9c2. The test is described as follows: Cardioprotective activity against HR-induced injury in rat H9c2 cells assessed as increase in cell viability at 9 uM by CCK-8 assay relative to control. It is filed as functional.

Calls of active or inactive are those of the source. No cut-off for these calls is given here.

As for `CS(=O)(=O)O.CS(=O)(=O)O.O=S1(=O)CCN(Cc2cc(NCC3CCOCC3)c3[nH]c(-c4ccccc4)cc3c2)CC1`, the Activity in test [1] was 84.37%. In addition, the result in test [2], in test [3] and in [4] was Active.

With `CC(C)(O)[C@@H]1CC[C@@](C)([C@H]2CC[C@]3(C)[C@@H]2[C@H](O)C[C@@H]2[C@@]4(C)CC[C@H](O)C(C)(C)[C@@H]4[C@@H](O[C@@H]4O[C@H](CO)[C@@H](O)[C@H](O)[C@H]4O[C@@H]4OC[C@@H](O)[C@H](O)[C@H]4O)C[C@]23C)O1` [MAJONOSIDE R2], the outcome in test [2], in test [7], in test [8], in [3], in test [4] and in test [11] was Active. The outcome in [12], in test [13] and in test [14] was Active. Moreover, the “fold change (FC)” value in test [5] is listed as 0.867; in [6], 1.113; in test [9], 1.135. Also, the outcome in [10] was inactive. Moreover, the Activity in test [15] was found to be 78.09%.

Source of the values: ChEMBL document CHEMBL4706669, “Majonoside-R2 extracted from Vietnamese ginseng protects H9C2 cells against hypoxia/reoxygenation injury via modulating mitochondrial function and biogenesis” (2021).
